From PMC10077475, “DG9-conjugated morpholino rescues phenotype in SMA mice by reaching the CNS via a subcutaneous administration” (JCI Insight, 2023)

Key:
[1] = tested on: neuromuscular junctions of SMA mice; test: NMJ staining, innervation of quadriceps and intercostal muscles; assay type: in vivo, mouse; settings: 40 mg/kg s.c. at PD0, quadriceps and intercostal muscles at PD30, 300–500 NMJs per group
Excerpt: We assessed the NMJ architecture of the quadriceps and the intercostal muscles at PD30 to understand the phenotypic rescue following injections at PD0 (Figure 5A). […] Although there was no statistical significance, we observed upregulation of both atrogenes in the unconjugated PMO–treated mice and upregulation of only Atrogin-1 in MOE-treated mice in the quadriceps muscle at approximately PD30. […] We also evaluated the expressions of muscle specific kinase (MuSK) and acetylcholine receptor alpha (AChRα), which play a crucial role in NMJ formation and maintenance ([46]–[50]). […] The findings corroborate our hypothesis that DG9-PMO treatment rescues the crosstalk between the muscle and the neurons by improving muscle pathology and the characteristics of NMJs.
NMJ staining was carried out as previously described ([71]). Briefly, the quadriceps and the intercostal muscle were fixed in 4 % paraformaldehyde (PFA) for 2 hours. The muscles were washed quickly with PBS and blocked with 5% goat serum and 2 % Triton-X in PBS for 1 hour at RT. This was followed by overnight incubation at 4°C with the primary mouse monoclonal antibodies anti-neurofilament clone 2H3 (1:100) and […] (1:500) (DSHB). […] The synaptic area was quantified using ImageJ. […]

[2] = tested on: severe SMA mouse model (Taiwanese model); test: Survival of severe SMA mice after a single subcutaneous injection at PD0; assay type: in vivo; settings: until humane endpoint
Protocol: To examine whether DG9 peptide can increase the efficacy of PMO, we conjugated it to an 18-mer PMO with a sequence identical to nusinersen. The DG9-PMO, unconjugated PMO, and MOE were injected into SMA model mice [Cg-Tg(SMN2)2HungSmn1^tm1Hung/J; abbreviated as Smn^–/– SMN2^Tg/Tg; commonly called the Taiwanese model]. We also used an arginine-rich peptide (R6G) that is currently being explored in clinical trials for Duchenne muscular dystrophy (DMD) and used in preclinical studies for Hutchinson-Gilford progeria syndrome ([37], [38]). The benchmark control peptide R6G was conjugated to the same PMO sequence used in our study (R6G-PMO). […] We subcutaneously injected mice with the AOs or saline (nontreated, NT) administered at postnatal day 0 (PD0) at 2 doses: 40 mg/kg or 80 mg/kg. In our preliminary experiments, we also tested lower doses of 10 and 20 mg/kg (data not shown). […] The survival was recorded until a humane endpoint was reached. For the 40 mg/kg doses, the median survival was 12 days for unconjugated PMO, 15.5 days for MOE, and 17 days for R6G-PMO, which was increased to 58 days for DG9-PMO treatment (Figure 1A and Supplemental Figure 1A; supplemental material available online with this article; https://doi.org/10.1172/jci.insight.160516DS1). The median survival increased to 57 days for unconjugated PMO, 64 days for MOE, and 121 days for DG9-PMO at the higher dose of 80 mg/kg (Figure 1A). […] In spite of no statistical difference between DG9-PMO and MOE groups, the median survival of DG9-PMO still was higher than MOE, as only 1 mouse was alive until PD200 following a 40 mg/kg injection of MOE.
SMA-transgenic mice [JAX stock 005058 FVB.Cg-Tg(SMN2)2HungSmn1^tm1Hung/J] (Smn^–/–; SMN2^Tg/Tg), also known as Taiwanese mice, were purchased from Jackson Laboratory. Heterozygous mice for Smn1 (Smn1^+/–; SMN2^–/–) generated by us were crossed with mice homozygous for Smn1 Smn^–/–; SMN2^Tg/Tg generated by us to obtain the SMA mice (Smn^–/–; SMN2^Tg/–) or the heterozygous healthy control (Smn1^+/–; SMN2^Tg/–). The SMA mice display a severe overt phenotype similar to patients with SMA type I. The mice were genotyped using a PCR assay on genomic DNA isolated from tail biopsies using the Phire Tissue Direct PCR Kit (Thermo Fisher Scientific) as per the manufacturer’s instructions. The DNA was amplified using the primers described in Supplemental Table 1 using the condition Mouse Smn: 98°C/5 minutes → 98°C/5 s 58°C/10 s 72°C/10 s × 35 cycles → 72°C/1 minute.
Injections were carried out using a 30-gauge Hamilton syringe. SMA mice identified following genotyping were randomly assigned to a treatment group. The researcher injecting mice was blinded to the treatment. SMA neonates were subcutaneously injected with 40 or 80 mg/kg of AOs at PD0, while NT and heterozygous control mice were injected with saline (n = 10–49) per group. Tissues including the quadriceps muscle, liver, kidney, spleen, diaphragm, intercostal muscle, heart, brain, and spinal cord were collected and snap-frozen in dry ice– cooled isopentane, then subsequently stored at –80°C.

severe SMA mouse model = test: Muscle pathology by H&E staining (myofiber size, centrally nucleated fibers); assay type: in vivo
Excerpt: Atrophic musculature is a classical characteristic feature of SMA with diminished skeletal muscle fiber size. To determine the treatment effects on muscle pathology, we assessed the physiology and architecture of the myofibers of 2 affected muscle groups, the quadriceps and intercostal muscles, as well as the sparingly affected diaphragm at PD7 and PD30 ([42], [43]). We quantified the cross-sectional area (CSA), the minimal Feret’s diameter, and centrally nucleated fibers, a hallmark of pathological muscle degeneration/regeneration cycle, for at least 500 myofibers per muscle for each treatment using hematoxylin and eosin (H&E) staining at PD7 and PD30 (Figure 4, A and B, and Supplemental Figures 5 and 6). […] The effect of DG9-PMO persisted at PD30 (Supplemental Figure 6).
Cryosections (7 μm) of the quadriceps muscle, diaphragm, and intercostal muscle were stained with Meyer’s H&E reagents (Electron Microscopy Reagents) ([70]). For the centrally nucleated fibers and myofiber size, 500–800 were randomly selected per muscle per treatment. The CSA and minimal Feret’s diameter were quantified using ImageJ (NIH). All H&E analyses were performed in a blinded fashion.

[3] = single subcutaneous injection at PD0, 40 mg/kg
[4] = single subcutaneous injection at PD0, 80 mg/kg

Q: Which “full innervation of peripheral synapses (NMJs)” value [1] does the source give for “unconjugated PMO: PMO targeting ISS-N1 intron 7 (5′ TCACTTTCATAATGCTGG 3′), purchased from Gene Tools LLC (all phosphorodiamidate morpholino (PMO)) [reference compound]” here?
A: Its value is 40%–50%.

Q: And the median survival [2, 3]?
A: The median survival was 12 days.

Q: And the median survival [2, 4]?
A: The median survival was 57 days.

Q: What about the “myofiber size at PD30 compared with DG9-PMO” value (severe SMA mouse model; 40 mg/kg s.c. at PD0, all 3 tissue types) of the same molecule?
A: Its value is “significantly smaller myofibers”.

Q: CC(=O)N[C@@H](Cc1ccc(O)cc1)C(=O)N[C@@H](C)C(=O)N[C@H](CCCNC(=N)N)C(=O)N[C@H](C(=O)N[C@@H](CCCNC(=N)N)C(=O)N[C@@H](CCCNC(=N)N)C(=O)N[C@H](CCCNC(=N)N)C(=O)NCC(=O)N1CCC[C@H]1C(=O)N[C@@H](CCCNC(=N)N)C(=O)NCC(=O)N[C@@H](Cc1ccc(O)cc1)C(=O)N[C@@H](C)C(=O)N[C@H](CCCNC(=N)N)C(=O)N[C@H](C(=O)N[C@@H](CCCNC(=N)N)C(=O)N[C@@H](CCCNC(=N)N)C(=O)N[C@H](CCCNC(=N)N)C(=O)NCC(=O)N1CCC[C@H]1C(=O)N[C@@H](CCCNC(=N)N)C(=O)N[C@H](CCCNC(=N)N)C(=O)N1C[C@@H](COP(=O)(N(C)C)N2C[C@@H](COP(=O)(N(C)C)N3C[C@@H](COP(=O)(N(C)C)N4C[C@@H](COP(=O)(N(C)C)N5C[C@@H](COP(=O)(N(C)C)N6C[C@@H](COP(=O)(N(C)C)N7C[C@@H](COP(=O)(N(C)C)N8C[C@@H](COP(=O)(N(C)C)N9C[C@@H](COP(=O)(N(C)C)N%10C[C@@H](COP(=O)(N(C)C)N%11C[C@@H](COP(=O)(N(C)C)N%12C[C@@H](COP(=O)(N(C)C)N%13C[C@@H](COP(=O)(N(C)C)N%14C[C@@H](COP(=O)(N(C)C)N%15C[C@@H](COP(=O)(N(C)C)N%16C[C@@H](COP(=O)(N(C)C)N%17C[C@@H](COP(=O)(N(C)C)N%18C[C@@H](COP(=O)(N(C)C)N%19CCC(C(N)=O)CC%19)O[C@@H](n%19cc(C)c(=O)[nH]c%19=O)C%18)O[C@@H](n%18ccc(N)nc%18=O)C%17)O[C@@H](n%17cnc%18c(N)ncnc%18%17)C%16)O[C@@H](n%16ccc(N)nc%16=O)C%15)O[C@@H](n%15cc(C)c(=O)[nH]c%15=O)C%14)O[C@@H](n%14cc(C)c(=O)[nH]c%14=O)C%13)O[C@@H](n%13cc(C)c(=O)[nH]c%13=O)C%12)O[C@@H](n%12ccc(N)nc%12=O)C%11)O[C@@H](n%11cnc%12c(N)ncnc%12%11)C%10)O[C@@H](n%10cc(C)c(=O)[nH]c%10=O)C9)O[C@@H](n9cnc%10c(N)ncnc%109)C8)O[C@@H](n8cnc9c(N)ncnc98)C7)O[C@@H](n7cc(C)c(=O)[nH]c7=O)C6)O[C@@H](n6cnc7c(=O)[nH]c(N)nc76)C5)O[C@@H](n5ccc(N)nc5=O)C4)O[C@@H](n4cc(C)c(=O)[nH]c4=O)C3)O[C@@H](n3cnc4c(=O)[nH]c(N)nc43)C2)O[C@@H](n2cnc3c(=O)[nH]c(N)nc32)C1)C(C)C)C(C)C (stereo partly drawn) [DG9-PMO] was tested. Which “full innervation of peripheral synapses (NMJs)” value [1] did it give?
A: Its value is “more than 60%”.

Q: What about the median survival [2, 3] of the same molecule?
A: The median survival was 58 days.

Q: And the median survival [2, 4]?
A: Its median survival is 121 days.

Q: And the centrally nucleated fibers (severe SMA mouse model; 40 mg/kg s.c. at PD0, PD7)?
A: The centrally nucleated fibers was “significant decrease in the percentage of centrally nucleated fibers”.

Q: And the “Feret's diameter and CSA of myofibers at PD7 compared with NT control” value (severe SMA mouse model; 40 mg/kg s.c. at PD0, quadriceps, diaphragm, intercostal muscle)?
A: Its value is “significantly larger in all 3 muscle groups”.
